Results: patent US9266835B2, “Quinoline derivatives useful as CB-1 inverse agonists” (JANSSEN PHARMACEUTICA NV, priority 2014, dated 2016)
Like-named read-outs stand apart in the source and are kept apart here.

What was measured:
[1] = biological target: Human CB2R (Cannabinoid receptor 2) (Homo sapiens (Human), UniProt P34972); assay: CB-2 in vitro cAMP assay (HTRF), inverse agonism; format: cell-based; conditions: mean where tested more than once
[2] = Mouse Fast PK/BBB (plasma and brain concentration); format: in vivo; conditions: male, C57bl/6j, oral, N=3 (dose given as 30 mg/kg and 20 mg/kg)
Description: Male Sprague Dawley rats were ordered from Charles River (225-250 gm upon arrival). They were fed standard chow diet (Purina 5001) and housed 2 per cage. Male C57bl/6j mice were ordered from Charles River at 22-25 g and housed 3 per cage. They were fed standard chow (Purina 5001). All animals were housed in a temperature-controlled room with 12-hour light/dark cycle. Animals were given food and water ad libitum, except as noted.
Test compounds were formulated in 10% PEG400 and 10% solutol. Test compounds were administered by oral gavage (5 ml kg^−1).
Male C57bl/6j mice were dosed with test compounds at 30 mg/kg. Plasma was collected via retro-orbital bleeding at 1 hr and 4 hrs after dosing. Whole brain without cerebellum was collected at 4 hrs after dosing. Wet brain weight was recorded before freezing. Brains were homogenized in saline and sent for analysis for determination of concentration of test compound.
Table BIO-3 below present results for representative compounds of the present invention, tested according to the procedure as described above. Each compound was tested in three animals (N=3) and administered PA at 20 mg/kg

[3] = biological target: Human CB1R (Cannabinoid receptor 1) (Homo sapiens (Human), UniProt P21554); assay: CB-1 in vitro cAMP assay (HTRF), inverse agonism; format: cell-based; conditions: mean where tested more than once
[4] = Mouse Fast PK/BBB (plasma and brain concentration); format: in vivo; conditions: oral, N=3 (dose given as 30 mg/kg and 20 mg/kg)
[5] = brain, read-out: BRAIN Mean Conc. ± Std. Dev
[6] = plasma, read-out: PLASMA Mean Conc. ± Std. Dev

Human CB1R (Cannabinoid receptor 1), sequence (P21554 whole entry): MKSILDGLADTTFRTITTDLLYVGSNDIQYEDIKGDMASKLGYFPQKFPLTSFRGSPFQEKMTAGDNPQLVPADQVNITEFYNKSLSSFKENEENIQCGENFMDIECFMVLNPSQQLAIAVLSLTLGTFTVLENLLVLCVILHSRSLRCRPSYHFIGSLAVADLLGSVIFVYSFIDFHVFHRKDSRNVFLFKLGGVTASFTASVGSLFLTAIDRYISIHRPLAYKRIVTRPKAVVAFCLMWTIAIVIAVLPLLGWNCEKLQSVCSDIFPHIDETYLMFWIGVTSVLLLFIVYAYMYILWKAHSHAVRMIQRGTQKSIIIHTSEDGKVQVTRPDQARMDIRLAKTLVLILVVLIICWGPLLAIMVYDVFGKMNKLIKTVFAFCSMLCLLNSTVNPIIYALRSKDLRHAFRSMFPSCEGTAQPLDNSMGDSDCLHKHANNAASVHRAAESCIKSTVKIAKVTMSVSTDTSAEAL
Human CB2R (Cannabinoid receptor 2), sequence (P34972 whole entry): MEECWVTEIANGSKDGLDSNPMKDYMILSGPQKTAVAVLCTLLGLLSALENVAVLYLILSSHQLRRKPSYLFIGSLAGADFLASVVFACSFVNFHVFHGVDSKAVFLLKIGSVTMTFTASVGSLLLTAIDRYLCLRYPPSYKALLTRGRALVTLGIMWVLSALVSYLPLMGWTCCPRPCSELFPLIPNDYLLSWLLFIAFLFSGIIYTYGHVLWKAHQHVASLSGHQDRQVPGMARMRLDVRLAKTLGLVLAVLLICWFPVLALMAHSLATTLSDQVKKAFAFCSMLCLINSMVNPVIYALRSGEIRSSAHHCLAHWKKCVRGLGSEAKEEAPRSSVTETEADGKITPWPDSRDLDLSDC

Row | SMILES | EC50 [1] | concentration at 4 h [2, 5] | concentration at 1 h [2, 6] | concentration at 4 h [2, 6] | EC50 [3] | concentration at 1 h ([4]; male, C57bl/6j, brain, read-out: BRAIN Mean Conc. ± Std. Dev) | BRAIN Mean Conc. ± Std. Dev ([4]; 1 hr)
1 | COCCNc1ccc(C(c2ccc(Cl)cc2)c2cc(NCCOC)c3[nH]c(=O)cc(NC4CCN(S(=O)(=O)C(F)(F)F)CC4)c3c2)cc1 (centres unmarked) [Compound 101, 6-((4-chlorophenyl)(4-((2-methoxyethyl)amino)phenyl)methyl)-8-((2-methoxyethyl)amino)-4-((1-((trifluoromethyl)sulfonyl)piperidin-4-yl)amino)quinolin-2(1H)-one] | 910 nM |  |  |  | 15 nM |  | 
2 | O=C(O)CN1CCC(Nc2cc(=O)[nH]c3ccc(C(c4ccc(Cl)cc4)c4ccc(Cl)cc4)cc23)CC1 [Compound 117, [4-({6-[Bis(4-chlorophenyl)methyl]-2-oxo-1,2-dihydroquinolin-4-yl}amino)piperidin-1-yl]acetic acid] | > 10000 nM |  |  |  | 9700 nM |  | 
3 | O=c1cc(/C=C/c2cccc(F)c2)c2cc(C(c3ccc(Cl)cc3)c3ccc(Cl)s3)ccc2[nH]1 (centres unmarked) [Compound 30, 6-[(4-Chlorophenyl)(5-chlorothiophen-2-yl)methyl]-4-[(E)-2-(3-fluorophenyl)ethenyl]quinolin-2(1H)-one] | > 10000 nM |  |  |  | 1380 nM |  | 
4 | O=c1cc(/C=C/c2ccccc2)c2cc(C(c3ccc(Cl)cc3)c3cccs3)ccc2[nH]1 (centres unmarked) [Compound 21, 6-[(4-Chlorophenyl)(thiophen-2-yl)methyl]-4-[(E)-2-phenylethenyl]quinolin-2(1H)-one] | > 10000 nM |  |  |  | 4140 nM |  | 
5 | O=c1cc(NC2CCN(c3ccccn3)CC2)c2cc(C(c3ccc(Cl)cc3)c3ccc(Cl)cc3)ccc2[nH]1 [Compound 68, 6-[Bis(4-chlorophenyl)methyl]-4-[(1-pyridin-2-ylpiperidin-4-yl)amino]quinolin-2(1H)-one] | > 10000 nM |  |  |  | 6 nM |  | 
6 | COCCCc1cc(C(c2ccc(Cl)cc2)c2ccc(Cl)cc2)cc2c(NC3CCN(S(=O)(=O)C(F)(F)F)CC3)cc(=O)[nH]c12 [Compound 140, 6-(bis(4-chlorophenyl)methyl)-8-(3-methoxypropyl)-4-((1-((trifluoromethyl)sulfonyl)piperidin-4-yl)amino)quinolin-2(1H)-one] | 60 nM |  |  |  | 13 nM |  | 
7 | O=S(=O)(Oc1cc(C2=CCN(S(=O)(=O)C(F)(F)F)CC2)c2cc(C(c3ccc(Cl)cc3)c3ccc(Cl)cc3)ccc2n1)C(F)(F)F [Compound 519, 6-(bis(4-chlorophenyl)methyl)-4-(1-((trifluoromethyl)sulfonyl)-1,2,3,6-tetrahydropyridin-4-yl)quinolin-2-yl trifluoromethanesulfonate] | 40 nM |  |  |  | > 10000 nM |  | 
8 | COc1ccc(C(O)(c2ccc3nccc(/C=C/c4ccccc4)c3c2)c2nccs2)cc1 (centres unmarked) [Compound 504, (E)-(4-methoxyphenyl)(4-styrylquinolin-6-yl)(thiazol-2-yl)methanol] | > 10000 nM |  |  |  | 342 nM |  | 
9 | O=c1cc(NC2CCN(S(=O)(=O)C(F)(F)F)CC2)c2cc(C(c3ccc(Cl)cc3)c3ccc(Cl)cc3)cc(NC3CCN(S(=O)(=O)C(F)(F)F)CC3)c2[nH]1 [Compound 99] | > 10000 nM |  |  |  | > 10000 nM |  | 
10 | OC(c1ccc(Cl)cc1)(c1ccc2nccc(/C=C\c3ccccc3)c2c1)c1cscn1 (mixture of isomers) [Compound 516, (Z)-(4-chlorophenyl)(4-styrylquinolin-6-yl)(thiazol-4-yl)methanol] | 200 nM |  |  |  | 3270 nM |  | 

The remaining lines, values ahead:

Row | EC50 [1] | concentration at 4 h [2, 5] | concentration at 1 h [2, 6] | concentration at 4 h [2, 6] | EC50 [3] | concentration at 1 h ([4]; male, C57bl/6j, brain, read-out: BRAIN Mean Conc. ± Std. Dev) | BRAIN Mean Conc. ± Std. Dev ([4]; 1 hr) | SMILES
11 | 8150 nM | 0 ng/mL | 714 ± 188 ng/mL | 291 ± 90.5 ng/mL | 15 nM | 7.43 ng/mL |  | O=c1cc(NC2CCN(S(=O)(=O)C(F)(F)F)CC2)c2cc(C(c3ccc(Cl)cc3)c3nccs3)ccc2[nH]1 (centres unmarked) [Compound #41, 6-((4-chlorophenyl)(thiazol-2-yl)methyl)-4-((1-((trifluoromethyl)sulfonyl)piperidin-4-yl)amino)quinolin-2(1H)-one]
12 | 4800 nM |  |  |  | 121 nM |  |  | COc1cc(NC2CCN(S(=O)(=O)C(F)(F)F)CC2)c2cc(C(c3ccc(Cl)cc3)c3ccc(Cl)cc3)cc(Br)c2n1 [Compound 546, 6-(bis(4-chlorophenyl)methyl)-8-bromo-2-methoxy-N-(1-((trifluoromethyl)sulfonyl)piperidin-4-yl)quinolin-4-amine]
13 | > 10000 nM | 59.7 ± 9.55 ng/mL | 2320 ± 1020 ng/mL | 1610 ± 563 ng/mL | 7 nM |  | BLOQ ± NA | O=c1cc(Nc2ccc(C(F)(F)F)cc2)c2cc(C(c3ccc(Cl)cc3)c3ccc(Cl)cc3)ccc2[nH]1 [Compound #59, 6-(bis(4-chlorophenyl)methyl)-4-((4-(trifluoromethyl)phenyl)amino)quinolin-2(1H)-one]
14 | 8630 nM |  |  |  | 51 nM |  |  | NC(=O)CCCCOc1cc(C(c2ccc(Cl)cc2)c2ccc(Cl)cc2)cc2c(NC3CCN(S(=O)(=O)C(F)(F)F)CC3)ccnc12 [Compound 538, 5-((6-(bis(4-chlorophenyl)methyl)-4-((1-((trifluoromethyl)sulfonyl)piperidin-4-yl)amino)quinolin-8-yl)oxy)pentanamide]
15 | 204 nM |  |  |  | 100 nM |  |  | COc1cc(C(c2ccc(Cl)cc2)c2ccc(Cl)cc2)cc2c(NC3CCN(S(=O)(=O)C(F)(F)F)CC3)ccnc12 [Compound 536, 6-[bis(4-chlorophenyl)methyl]-8-methoxy-N-[1-(trifluoromethane)sulfonylpiperidin-4-yl]quinolin-4-amine]
